In US20120115157A1, “Methods for Screening for Antibiotic Compounds” (Trustees of Dartmouth College, priority 2009, published 2012):
≈ marks a conversion by molar mass, not a printed value.

System: S. aureus
Assay: Minimum Inhibitory Concentration (MIC), inhibition of growth of S. aureus in vitro
Format: cell-based
Details: Staphylococcus aureus
Excerpt: The next step will be to test the drugs for activity in vitro to inhibit growth of bacterial cells and determination of minimum inhibitory concentration (MIC) doses for the drugs. Determining MIC doses is a standard assay in development of antibiotic drugs and methods are well known in the art. For example, MIC can be determined according to the Clinical and Laboratory Standards Institute guidelines.
Once the compounds of the present invention were identified through the MazEF screening assay described above, the activity of the compounds to inhibit growth of S. aureus in vitro was tested using the standard method of determining Minimum Inhibitory Concentrations (MICS). Such methods are well known to those of skill in the art since determining MIC doses is a standard assay in development of antibiotic drugs. For example, MIC values can be determined according to the Clinical and Laboratory Standards Institute guidelines. In Table 1, the MIC values are presented for each of the ten compounds identified through the MazEF screening assay as having potential for antibiotic activity in S. aureus.

Row | Structure (SMILES) | MIC [µg/mL]
1 | CN(C)c1ccc(/C=C2\SC(=S)N(C(Cc3ccccc3)C(=O)O)C2=O)cc1 (centres unmarked) [Compound 1, 2-{5-[4-(dimethylamino)benzylidene]-4-oxo-2-thioxo-1,3-thiazolidin-3-yl}-3-phenylpropanoic acid] | 12.5 (≈ 30.3 µM)
2 | Cc1ccc(Nc2nc3nonc3nc2N)c(C)c1 [Compound 4, N-(2,4-dimethylphenyl)[1,2,5]oxadiazolo [3,4-b]pyrazine-5,6-diamine] | 12.5 (≈ 48.8 µM)
3 | O=C1c2ccccc2-c2onc3ccc(Cl)c1c23 [Compound 5, 5-chloro-6H-anthra[1,9-cd]isoxazol-6-one] | 6.25 (≈ 24.4 µM)
4 | CCN1CCc2c(sc(NC(=O)Nc3ccc(Cl)cc3)c2C(N)=O)C1 [Compound 9, 2-({[(4-chlorophenyl)amino]carbonyl}amino)-6-ethyl-4,5,6,7-tetrahydrothieno[2,3-c]pyridine-3-carboxamide] | 100 (≈ 264 µM)
5 | COc1ccc(/C=C\C(=O)C2C(=O)c3ccccc3C2=O)cc1 [Compound 10] | 100 (≈ 326 µM)
